This is an account of results in patent US10435399B2, “HDAC6 inhibitory heterocyclic compound” (TAKEDA PHARMACEUTICAL COMPANY LIMITED, priority 2017, dated 2019).

The test system of one data set is TK6 cells. Nature of the data set: γH2AX assay using TK6 cells. It is filed as cell-based, Human. The conditions noted are these: 4 hr treatment, up to 100 μM. The protocol:
γH2AX Assay Using TK6 Cells
Human lymphoblasts-derived TK6 cells were treated with the compounds of Examples 489, 512 or 519 at 0, 10, 30 or 100 μmol/L (final concentration) for 4 hr, and the presence or absence of DNA damage was evaluated by measuring phosphorylation of histone H2AX (γH2AX) as a marker. In addition, cytotoxicity after 24-hr treatment was also evaluated.
Exponentially growing TK6 cells were prepared at the cell density of 4×10^5 cells/mL in a culture medium, and was added to a 96-well plate by 100 μL/well. A test compound solution (2% DMSO) prepared using a culture solution, having twice the concentration on the above-mentioned final concentrations, was added thereto by 100 μL/well. This plate was incubated at 37° C., the cell suspension after 4 hr was sampled, and stained using In Vitro MultiFlow™ DNA Damage Kit (Litron), and H2AX phosphorylation level in each nucleus was measured using a flow cytometer and average value was calculated. The H2AX phosphorylation level in the concurrent vehicle control group was also measured and average value was calculated. The rate of change in the H2AX phosphorylation level in the treatment groups relative to that in the control group was calculated, and Dunnett test (significance level: two-tailed 1%) was performed. In addition, the cell suspension after 24 hr treatment was sampled, and the nucleus number was measured, and variation in the nucleus number in the treatment groups relative to that in the concurrent vehicle control group was used as an indicator of cytotoxicity. […] Therefore, the potential of the compounds for DNA strand breakage was judged to be negative under this test condition.

The target of a further data set is T1, HDAC6 enzyme (Homo sapiens, UniProt Q9UBN7).
T1 construct: transducing full length HDAC6 gene into Sf-9 insect cells; GST; purchased SignalChem; host or cells: Sf-9 insect cells
T1 sequence (Q9UBN7 1-1215): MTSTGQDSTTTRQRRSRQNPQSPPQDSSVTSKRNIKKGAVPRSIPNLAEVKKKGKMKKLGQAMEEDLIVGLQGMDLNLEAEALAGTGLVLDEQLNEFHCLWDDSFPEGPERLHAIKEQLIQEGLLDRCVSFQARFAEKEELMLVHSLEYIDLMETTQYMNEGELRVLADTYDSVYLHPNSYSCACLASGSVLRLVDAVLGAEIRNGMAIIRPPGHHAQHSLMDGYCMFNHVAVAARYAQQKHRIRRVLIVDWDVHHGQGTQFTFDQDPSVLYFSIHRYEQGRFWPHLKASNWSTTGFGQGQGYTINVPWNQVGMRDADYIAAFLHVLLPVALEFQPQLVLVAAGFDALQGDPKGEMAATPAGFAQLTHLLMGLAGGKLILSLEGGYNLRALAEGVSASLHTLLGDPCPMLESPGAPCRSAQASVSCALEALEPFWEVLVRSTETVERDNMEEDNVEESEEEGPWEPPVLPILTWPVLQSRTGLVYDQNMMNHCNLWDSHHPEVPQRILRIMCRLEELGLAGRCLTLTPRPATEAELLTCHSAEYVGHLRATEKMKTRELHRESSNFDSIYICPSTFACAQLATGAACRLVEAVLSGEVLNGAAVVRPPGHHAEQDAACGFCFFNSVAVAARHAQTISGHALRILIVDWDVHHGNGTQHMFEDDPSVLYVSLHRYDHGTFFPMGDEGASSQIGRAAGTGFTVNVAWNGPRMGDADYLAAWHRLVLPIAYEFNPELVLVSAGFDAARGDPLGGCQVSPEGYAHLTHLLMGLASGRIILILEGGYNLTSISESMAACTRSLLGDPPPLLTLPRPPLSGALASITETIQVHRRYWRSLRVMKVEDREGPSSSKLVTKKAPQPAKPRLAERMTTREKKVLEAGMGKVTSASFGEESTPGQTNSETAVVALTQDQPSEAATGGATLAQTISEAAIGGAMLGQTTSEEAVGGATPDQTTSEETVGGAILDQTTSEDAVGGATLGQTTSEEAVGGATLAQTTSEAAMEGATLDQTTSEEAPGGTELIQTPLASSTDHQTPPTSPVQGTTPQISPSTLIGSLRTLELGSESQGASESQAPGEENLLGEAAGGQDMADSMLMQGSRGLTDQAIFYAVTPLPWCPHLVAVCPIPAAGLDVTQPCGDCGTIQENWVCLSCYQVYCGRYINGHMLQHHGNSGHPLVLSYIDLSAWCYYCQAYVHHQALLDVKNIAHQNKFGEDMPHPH
As to the kind of experiment: HDAC6 enzyme inhibitory activity (HDAC-Glo I/II Assay kit). To be noted: 10 μM, wells without enzyme = 100% inhibition; for inhibition at 10 µM: read-out: HDAC6 inhibitory rate (%) (10 μM). It is filed as biochemical. An outline of the steps:
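Test compound is preincubated 60 min at RT with full-length insect-cell HDAC6 in Tris-HCl pH 7.5 with 135 mM NaCl and 1 mM MgCl2. A 20 min room-temperature HDAC-Glo reaction follows, with luminescent read-out.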

A further data set has as its system bone-marrow cells. As to the kind of experiment: Micronucleus test in rats (bone-marrow cells). It counts as in vivo, rats (Crl:CD(SD)). To be noted: rat bone marrow, positive control 20 mg/kg/day. On the procedure: Combination Assay of Micronucleus Test and Comet Assay in Rats […] Bone-marrow smear for micronucleus analysis was prepared as follows. Femur was cut at both ends, and washed with fetal bovine serum (FBS) in a centrifuging tube, and the obtained bone-marrow fluid was centrifuged for 5 min at room temperature. The supernatant was removed, and the cell sediment was suspended in the remaining small amount of the supernatant. A part of the suspension was dropped on a glass slide, and a cover glass was placed thereon to give a bone-marrow smear. The smear was dried well, and fixed with methanol for 5 min. The bone-marrow smear of negative control, that of treatment groups as well as the previously prepared bone-marrow smear of positive control group were encoded, and observed by the blind method. An acridine orange solution (40 μg/mL) was dropped (several drops) to the smear just before observation, and a cover glass was placed thereon. […] In addition, as an index of growth inhibitory effect on bone-marrow cell, total of 500 erythrocytes [immature erythrocytes+mature erythrocytes (ME)] per individual were observed, and immature erythrocyte rate (IE %) relative to the total number of erythrocytes was calculated.

For `CC(F)(F)C(=O)N[C@H]1[C@H](N2Cc3ncc(-c4nnc(C(F)F)o4)cc3C2=O)CCCC1(F)F` [Example 598, N-((1S,6R)-6-(3-(5-(difluoromethyl)-1,3,4-oxadiazol-2-yl)-5-oxo-5,7-dihydro-6H-pyrrolo[3,4-b]pyridin-6-yl)-2,2-difluorocyclohexyl)-2,2-difluoropropanamide], in the data set with TK6 cells, the “histone H2AX phosphorylation (γH2AX) resulted from DNA strand breakage” value was “did not induce histone H2AX phosphorylation” and the “potential for DNA strand breakage (judgement)” value is reported as “negative”. On HDAC6 enzyme, the inhibition at 10 µM was 100%. Consider `O=C1c2cc(-c3nnc(C(F)F)o3)cnc2CN1[C@@H]1COCC[C@H]1Oc1cc(F)cc(F)c1` [Example 650, 1,5-anhydro-2,4-dideoxy-2-(3-(5-(difluoromethyl)-1,3,4-oxadiazol-2-yl)-5-oxo-5,7-dihydro-6H-pyrrolo[3,4-b]pyridin-6-yl)-3-O-(3,5-difluorophenyl)-threo-pentitol (optical isomer)], for which the inhibition at 10 µM on HDAC6 enzyme was 99%. As for `O=C1c2cc(-c3nnc(C(F)F)o3)cnc2CN1[C@@H]1COCC[C@H]1Oc1cc(F)cc(F)c1` [Example 651, 1,5-anhydro-2,4-dideoxy-2-(3-(5-(difluoromethyl)-1,3,4-oxadiazol-2-yl)-5-oxo-5,7-dihydro-6H-pyrrolo[3,4-b]pyridin-6-yl)-3-O-(3,5-difluorophenyl)-threo-pentitol (optical isomer)], on HDAC6 enzyme, the “HDAC6 inhibitory rate (%) (10 μM)” value turned out to be 100%. With `O=C1c2cc(-c3nnc(C(F)F)o3)cnc2CN1[C@@H]1COCC[C@H]1Oc1cccc(F)c1` [Example 652, 1,5-anhydro-2,4-dideoxy-2-(3-(5-(difluoromethyl)-1,3,4-oxadiazol-2-yl)-5-oxo-5,7-dihydro-6H-pyrrolo[3,4-b]pyridin-6-yl)-3-O-(3-fluorophenyl)-threo-pentitol (optical isomer)], the inhibition at 10 µM on HDAC6 enzyme was determined as 100%.

Consider `O=C1c2cc(-c3nnc(C(F)F)o3)cnc2CN1[C@@H]1COCC[C@H]1Oc1cccc(F)c1` [Example 653, 1,5-anhydro-2,4-dideoxy-2-(3-(5-(difluoromethyl)-1,3,4-oxadiazol-2-yl)-5-oxo-5,7-dihydro-6H-pyrrolo[3,4-b]pyridin-6-yl)-3-O-(3-fluorophenyl)-threo-pentitol (optical isomer)], for which the “HDAC6 inhibitory rate (%) (10 μM)” value at HDAC6 enzyme is on record as 99%. For the compound `O=C1c2cc(-c3nnc(C(F)F)o3)cnc2CN1[C@@H]1COCC[C@H]1Oc1ccc(F)cc1F` [Example 655, 1,5-anhydro-2,4-dideoxy-2-(3-(5-(difluoromethyl)-1,3,4-oxadiazol-2-yl)-5-oxo-5,7-dihydro-6H-pyrrolo[3,4-b]pyridin-6-yl)-3-O-(2,4-difluorophenyl)-threo-pentitol], on HDAC6 enzyme, the inhibition at 10 µM came to 96%.

Regarding `O=C1c2cc(-c3nnc(C(F)F)o3)cnc2CN1[C@@H]1COCC[C@H]1Oc1ccc(F)cc1F` [Example 656, 1,5-anhydro-2,4-dideoxy-2-(3-(5-(difluoromethyl)-1,3,4-oxadiazol-2-yl)-5-oxo-5,7-dihydro-6H-pyrrolo[3,4-b]pyridin-6-yl)-3-O-(2,4-difluorophenyl)-threo-pentitol (Optical Isomer)], the “HDAC6 inhibitory rate (%) (10 μM)” value at HDAC6 enzyme turned out to be 100%.

As for `O=C1c2cc(-c3nnc(C(F)F)o3)cnc2CN1[C@@H]1COCC[C@H]1Oc1cccc(F)c1F` [Example 657, 1,5-anhydro-2,4-dideoxy-2-{3-[5-(difluoromethyl)-1,3,4-oxadiazol-2-yl]-5-oxo-5,7-dihydro-6H-pyrrolo[3,4-b]pyridin-6-yl}-3-O-(2,3-difluorophenyl)-threo-pentitol (optical isomer)], the inhibition at 10 µM on HDAC6 enzyme came out at 100%. `O=C1c2cc(-c3nnc(C(F)F)o3)cnc2CN1[C@@H]1COCC[C@H]1Oc1c(F)cccc1F` [Example 659, 1,5-anhydro-2,4-dideoxy-2-{3-[5-(difluoromethyl)-1,3,4-oxadiazol-2-yl]-5-oxo-5,7-dihydro-6H-pyrrolo[3,4-b]pyridin-6-yl}-3-O-(2,6-difluorophenyl)-threo-pentitol (optical isomer)]: on HDAC6 enzyme, the inhibition at 10 µM is 99%. Take `O=C1c2cc(-c3nnc(C(F)F)o3)cnc2CN1[C@@H]1COCC[C@H]1Oc1c(F)cccc1F` [Example 660, 1,5-anhydro-2,4-dideoxy-2-{3-[5-(difluoromethyl)-1,3,4-oxadiazol-2-yl]-5-oxo-5,7-dihydro-6H-pyrrolo[3,4-b]pyridin-6-yl}-3-O-(2,6-difluorophenyl)-threo-pentitol (optical isomer)]: on HDAC6 enzyme, the “HDAC6 inhibitory rate (%) (10 μM)” value was found to be 100%. For `O=C1c2cc(-c3nnc(C(F)F)o3)cnc2CN1[C@@H]1CCCC[C@@H]1NC(=O)C(F)(F)C(F)(F)F` [Example 661, N-[(1S,2R)-2-{3-[5-(difluoromethyl)-1,3,4-oxadiazol-2-yl]-5-oxo-5,7-dihydro-6H-pyrrolo[3,4-b]pyridin-6-yl}cyclohexyl]-2,2,3,3,3-pentafluoropropanamide], the inhibition at 10 µM on HDAC6 enzyme turned out to be 99%. On to `O=P1(N(CCCl)CCCl)NCCCO1` (centres unmarked) [cyclophosphamide], for which, in the data set with bone-marrow cells, the “micronucleated immature erythrocytes incidences (MNIE %), mean ± SD” value is on record as “↑2.77 ± 0.88 %”.
